The target in one assay is OGG1 (Homo sapiens (Human), UniProt O15527). In words: In vitro OGG1 activity assay. Format: biochemical. Particulars: 800 pM OGG1 enzyme, 2 nM human APEX1, 10 nM 8-oxoA:C substrate. The method, boiled down:
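Fluorescence-release assay on a duplex oligonucleotide carrying an OGG1 substrate base beside a fluorophore, quenched from the complementary strand. Excess APEX1 cleaves the abasic site left by base excision, melting the duplex and unquenching the fluorophore. Compounds in DMSO were dispensed before enzyme and substrate, and fluorescein signal was read.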

The test system of another assay is CCL2. In words: Mouse CCL2 assay in MLE12 cells. The format is cell-based. The settings on record: Mus musculus, MLE12, 30 h. In outline: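 MLE12 mouse lung epithelial cells (7500/well, DMEM/F12 with 5% FBS) preincubated 1 h with compounds (6-point dose-response, duplicate), then stimulated with TNF-α (final 20 ng/ml) for 30 h at 37 °C. Secreted CCL2 measured by HTRF sandwich immunoassay (Ex330/Em620, 665 nm) against standard curve; IC50 from delta ratios.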

A further assay concerns MLE12 cells. In words: Cell viability assay in MLE12 cells (resazurin). The format is cell-based, mouse. Particulars: Mus musculus, TNF-α 20 ng/ml, resazurin added after 24 hours culture. In outline: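 MLE12 cells (7500 cells/well) were seeded onto 11-point duplicate compound dose-responses, with TNF-α (final 20 ng/ml) added after 1 hour at 37° C. After 24 hours, resazurin was added for 6 hours and resorufin fluorescence read (ex544 nm/em595 nm). EC50 values were calculated by curve fitting.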

Setting [1] is: MLE12 cells, TNF-α 20 ng/ml, supernatant after 30 hours, HTRF, read-out: CCL2 (EC50).

In general, IC50 refers to the concentration that inhibits the measured activity by half. Low readings indicate greater potency in that assay, high ones weaker potency in that assay. For orientation: EC50 means the concentration at which the effect is half-maximal.

Where two headings read alike, the source gives them in different places.

Sequence of OGG1 (O15527 whole entry): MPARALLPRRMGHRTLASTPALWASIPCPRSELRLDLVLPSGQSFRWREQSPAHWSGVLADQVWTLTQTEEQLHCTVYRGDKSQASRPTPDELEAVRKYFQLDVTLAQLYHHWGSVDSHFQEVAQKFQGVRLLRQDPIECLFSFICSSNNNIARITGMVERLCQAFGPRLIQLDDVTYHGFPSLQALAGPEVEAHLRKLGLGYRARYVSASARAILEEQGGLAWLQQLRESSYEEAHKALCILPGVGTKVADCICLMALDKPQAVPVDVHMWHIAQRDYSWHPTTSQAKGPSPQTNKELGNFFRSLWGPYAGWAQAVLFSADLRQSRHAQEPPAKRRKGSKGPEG

On to `COc1cc(NC(=O)[C@H]2CC[C@@H](n3c(=O)[nH]c4c(OCCN(C)C)cccc43)CC2)ccc1C` [Example 304, Cis-4-{4-[2-(dimethylamino)ethoxy]-2-oxo-2,3-dihydro-1H-1,3-benzodiazol-1-yl}-N-(3-methoxy-4-methylphenyl)cyclohexane-1-carboxamide], for which the IC50 against OGG1 came to 0.0038 µM; in the assay with MLE12 cells (MLE12, 24 h), 8.27 µM. Moreover, the EC50 with CCL2 (setting [1]) is 10600 nM.

Consider `COc1cc(NC(=O)N2C3CCC2CC(n2c(=O)[nH]c4c(Br)cccc42)C3)ccc1C` (stereo not drawn) [Example 85, 3-(4-Bromo-2-oxo-2,3-dihydro-1H-1,3-benzodiazol-1-yl)-N-(3-methoxy-4-methylphenyl)-(endo)-8-azabicyclo[3.2.1]octane-8-carboxamide], for which the results for the IC50 at OGG1 and in the assay on MLE12 cells were 0.033 µM and 17.2 µM, respectively. The EC50 in the assay with CCL2 (read-out: CCL2 (EC50, nM)) turned out to be 39200 nM.

As for `Nc1ccc(-c2cccc3c2[nH]c(=O)n3C2CCN(C(=O)Nc3ccc(Cl)c(Cl)c3)CC2)cn1` [Example 39, 4-[4-(6-Aminopyridin-3-yl)-2-oxo-2,3-dihydro-1H-1,3-benzodiazol-1-yl]-N-(3,4-dichlorophenyl)piperidine-1-carboxamide], the IC50 against OGG1 is 0.788 µM; with MLE12 cells (MLE12, 24 h), 6.5 µM. In addition, the EC50 with CCL2 (setting [1]) stood at 15100 nM.

With `O=c1[nH]c2c(Cl)cccc2n1[C@H]1CC[C@@H](C(=O)Nc2ccc(Cl)cc2)CC1` [Example 150, (Cis)-4-(4-chloro-2-oxo-2,3-dihydro-1H-1,3-benzodiazol-1-yl)-N-(4-chlorophenyl)cyclohexane-1-carboxamide], the IC50 turned out to be 0.106 µM against OGG1 and 7.58 µM in the assay on MLE12 cells (MLE12, 24 h). In addition, in the assay on CCL2 (setting [1]), the half-maximal effective concentration (EC50) was determined as 18700 nM.

Turning to `O=c1[nH]c2c(Br)cccc2n1[C@H]1CC[C@@H](C(=O)Nc2ccc(Cl)cc2Cl)CC1` [Example 131, (Cis)-4-(4-bromo-2-oxo-2,3-dihydro-1H-1,3-benzodiazol-1-yl)-N-(2,4-dichlorophenyl)cyclohexane-1-carboxamide], the half-inhibitory concentration (IC50) against OGG1 is 0.676 µM; in the assay with MLE12 cells (MLE12, 24 h), 17.4 µM. Also, the EC50 in the assay with CCL2 (setting [1]) worked out at 39200 nM.

With `COc1cc(NC(=O)[C@H]2CC[C@@H](n3c(=O)[nH]c4c(NC(=O)C5CNCCO5)cccc43)CC2)ccc1C` (stereo partly drawn) [Example 289, N-{2-Oxo-1-[cis-4-[(3-methoxy-4-methylphenyl)carbamoyl]cyclohexyl]-2,3-dihydro-1H-1,3-benzodiazol-4-yl}morpholine-2-carboxamide], the IC50 against OGG1 turned out to be 0.0517 µM; in the assay on MLE12 cells (MLE12, 24 h) it was 24.5 µM. For the same compound, in the assay on CCL2 (setting [1]), the EC50 was found to be 32100 nM.

With `COc1cc(NC(=O)[C@H]2CC[C@@H](n3c(=O)[nH]c4c(N(C)CCCNC(=O)OC(C)(C)C)cccc43)CC2)ccc1C` [Example 305, tert-Butyl N-{3-[methyl({2-oxo-1-[cis-4-[(3-methoxy-4-methylphenyl)carbamoyl]cyclohexyl]-2,3-dihydro-1H-1,3-benzodiazol-4-yl})amino]propyl}carbamate], the IC50 was 0.251 µM at OGG1 and 4.88 µM with MLE12 cells (MLE12, 24 h). Further, the EC50 in the assay with CCL2 (setting [1]) stood at 8110 nM.

Regarding `CNc1cccc2c1[nH]c(=O)n2[C@H]1CC[C@@H](C(=O)Nc2ccc(C)c(OC)c2)CC1` [Example 244, Cis-N-(3-methoxy-4-methylphenyl)-4-[4-(methylamino)-2-oxo-2,3-dihydro-1H-1,3-benzodiazol-1-yl]cyclohexane-1-carboxamide], the IC50 against OGG1 was 0.0607 µM; with MLE12 cells (MLE12, 24 h) it was 13.7 µM. The concentration for a half-maximal effect (EC50) with CCL2 (setting [1]) was 37300 nM.

On to `COc1cc(NC(=O)[C@H]2CC[C@@H](n3c(=O)[nH]c4c(C(=O)N5CC[C@@H](N(C)C)C5)cccc43)CC2)ccc1C` [Example 267, Cis-4-{4-[(3R)-3-(dimethylamino)pyrrolidine-1-carbonyl]-2-oxo-2,3-dihydro-1H-1,3-benzodiazol-1-yl}-N-(3-methoxy-4-methylphenyl)cyclohexane-1-carboxamide], for which the IC50 is 0.0824 µM against OGG1 and 17.9 µM in the assay on MLE12 cells (MLE12, 24 h). The EC50 in the assay with CCL2 (setting [1]) worked out at 34100 nM.

With `COc1cc(NC(=O)[C@H]2CC[C@@H](n3c(=O)[nH]c4c(N(C)C5CCN(C)C5)cccc43)CC2)ccc1C` (stereo partly drawn) [Example 296, Cis-N-(3-Methoxy-4-methylphenyl)-4-{4-[methyl(1-methylpyrrolidin-3-yl)amino]-2-oxo-2,3-dihydro-1H-1,3-benzodiazol-1-yl}cyclohexane-1-carboxamide], the IC50 amounted to 0.0286 µM against OGG1 and 13.5 µM in the assay on MLE12 cells (MLE12, 24 h). For the same compound, the EC50 with CCL2 (setting [1]) came out at 10500 nM.

In the case of `COc1cc(NC(=O)[C@H]2CC[C@@H](n3c(=O)[nH]c4c(NCCN(C)C)cccc43)CC2)ccc1C` [Example 280, Cis-4-(4-{[2-(dimethylamino)ethyl]amino}-2-oxo-2,3-dihydro-1H-1,3-benzodiazol-1-yl)-N-(3-methoxy-4-methylphenyl)cyclohexane-1-carboxamide], the IC50 was found to be 0.0275 µM against OGG1 and 16.6 µM with MLE12 cells (MLE12, 24 h). In addition, the concentration for a half-maximal effect (EC50) in the assay on CCL2 (setting [1]) was 24700 nM.

With `COc1cccc2c1[nH]c(=O)n2[C@H]1CC[C@@H](C(=O)Nc2ccc3cc[nH]c3c2)CC1` [Example 209, Cis-N-(1H-indol-6-yl)-4-(4-methoxy-2-oxo-2,3-dihydro-1H-1,3-benzodiazol-1-yl)cyclohexane-1-carboxamide], the IC50 at OGG1 stood at 0.402 µM; in the assay on MLE12 cells (MLE12, 24 h), 21.5 µM. Also, in the assay on CCL2 (setting [1]), the EC50 came to 34900 nM.

For the compound `COc1ccc(NC(=O)[C@H]2CC[C@@H](n3c(=O)[nH]c4c(F)cccc43)CC2)cc1C` [Example 212, Cis-4-(4-fluoro-2-oxo-2,3-dihydro-1H-1,3-benzodiazol-1-yl)-N-(4-methoxy-3-methylphenyl)cyclohexane-1-carboxamide], the IC50 came out at 0.00943 µM against OGG1 and 16.9 µM in the assay on MLE12 cells (MLE12, 24 h). For the same compound, the EC50 in the assay with CCL2 (setting [1]) is 34200 nM.

In the case of `COc1ccc(NC(=O)[C@H]2CC[C@@H](n3c(=O)[nH]c4c(Br)cccc43)CC2)cc1Cl` [Example 123, (Cis)-4-(4-bromo-2-oxo-2,3-dihydro-1H-1,3-benzodiazol-1-yl)-N-(3-chloro-4-methoxyphenyl)cyclohexane-1-carboxamide], the IC50 was 0.026 µM at OGG1 and 10 µM with MLE12 cells (MLE12, 24 h). In addition, the EC50 with CCL2 (setting [1]) worked out at 24200 nM.

In the case of `COc1c(F)cc(NC(=O)[C@H]2CC[C@@H](n3c(=O)[nH]c4c(Br)cccc43)CC2)cc1F` [Example 160, (Cis)-4-(4-bromo-2-oxo-2,3-dihydro-1H-1,3-benzodiazol-1-yl)-N-(3,5-difluoro-4-methoxyphenyl)cyclohexane-1-carboxamide], the 50% inhibitory concentration (IC50) against OGG1 is 0.081 µM; with MLE12 cells (MLE12, 24 h), 8.18 µM. Moreover, in the assay on CCL2 (setting [1]), the EC50 is 25600 nM.

With `O=c1[nH]c2c(Br)cccc2n1[C@H]1CC[C@@H](C(=O)Nc2ccc(F)cc2)CC1` [Example 136, (Cis)-4-(4-bromo-2-oxo-2,3-dihydro-1H-1,3-benzodiazol-1-yl)-N-(4-fluorophenyl)cyclohexane-1-carboxamide], the IC50 against OGG1 is 0.501 µM; with MLE12 cells (MLE12, 24 h), 8.86 µM. In addition, in the assay with CCL2 (setting [1]), the EC50 was 23800 nM.

`Cc1cc(NC(=O)N2C3CCC2CC(n2c(=O)[nH]c4c(-c5ccc(CO)nc5)cccc42)C3)ccc1I` (stereo not drawn) [Example 91, 3-{4-[6-(Hydroxymethyl)pyridin-3-yl]-2-oxo-2,3-dihydro-1H-1,3-benzodiazol-1-yl}-N-(4-iodo-3-methylphenyl)-(endo)-8-azabicyclo[3.2.1]octane-8-carboxamide]: the IC50 amounted to 0.058 µM on OGG1 and 6.45 µM in the assay on MLE12 cells (MLE12, 24 h). In the assay with CCL2 (setting [1]), the EC50 is 12600 nM.

Take `O=c1[nH]c2c(Br)cccc2n1[C@H]1CC[C@@H](C(=O)Nc2ccccc2)CC1` [Example 127, (Cis)-4-(4-bromo-2-oxo-2,3-dihydro-1H-1,3-benzodiazol-1-yl)-N-phenylcyclohexane-1-carboxamide]: the IC50 stood at 1.22 µM against OGG1 and 16.2 µM in the assay with MLE12 cells (MLE12, 24 h). The EC50 with CCL2 (setting [1]) amounted to 28700 nM.

Consider `COC(=O)c1cccc2c1[nH]c(=O)n2[C@H]1CC[C@@H](C(=O)Nc2ccc(C)c(OC)c2)CC1` [Example 258, Methyl 2-oxo-1-[cis-4-[(3-methoxy-4-methylphenyl)carbamoyl]cyclohexyl]-2,3-dihydro-1H-1,3-benzodiazole-4-carboxylate], for which the IC50 against OGG1 is 0.00583 µM; in the assay on MLE12 cells (MLE12, 24 h), 11.3 µM. Further, the EC50 in the assay with CCL2 (setting [1]) turned out to be 42700 nM.

As to `Cn1c(NC(=O)[C@H]2CC[C@@H](n3c(=O)[nH]c4c(Br)cccc43)CC2)nc2ccccc21` [Example 257, Cis-4-(4-bromo-2-oxo-2,3-dihydro-1H-1,3-benzodiazol-1-yl)-N-(1-methyl-1H-1,3-benzodiazol-2-yl)cyclohexane-1-carboxamide], the IC50 came out at 0.0269 µM at OGG1 and 19.9 µM with MLE12 cells (MLE12, 24 h). Moreover, the EC50 with CCL2 (setting [1]) stood at 34300 nM.

In the case of `COc1cc(NC(=O)[C@H]2CC[C@@H](n3c(=O)[nH]c4c(N5CCC(NC(C)=O)C5)cccc43)CC2)ccc1C` (stereo partly drawn) [Example 313, Cis-4-[4-(3-acetamidopyrrolidin-1-yl)-2-oxo-2,3-dihydro-1H-1,3-benzodiazol-1-yl]-N-(3-methoxy-4-methylphenyl)cyclohexane-1-carboxamide], the half-inhibitory concentration (IC50) against OGG1 was 0.0213 µM; with MLE12 cells (MLE12, 24 h) it was 19.5 µM. In the assay on CCL2 (setting [1]), the EC50 was found to be 35100 nM.

(Values after patent US11970474B2, “Substituted benzodiazoles and use thereof in therapy” (THOMAS HELLEDAYS STIFTELSE FÖR MEDICINSK FORSKNING, priority 2018, dated 2024).)
